Consider 27 molecules from patent publication US8242240B2, “Anti-inflammatory compounds and uses thereof” (Yale University, priority 2000, dated 2012).

Several values for one entry are separate records, joined by “and”; a condition that tells them apart may be missing. Equal entries are not always repeated. [ ]: non-standard residue; d: D form.

The target in one experiment is T1, NEMO (Homo sapiens, UniProt Q9Y6K9).
T1 construct: bacterially expressed version of full length NEMO fused at its NH2-terminus to glutathione S-transferase; made in house; host or cells: bacteria (pGEX-4T1)
Briefly: GST pull-down of IKKβ NBD mutants by GST-NEMO. In kind it is binding. The conditions noted are these: GST pulldown assay; NBD mutations in IKKβ. An excerpt: To identify the NEMO-interacting domain of IKKβ we performed in vitro pull down assays (Zhong et al., (1997) Cell 89, 413-424) using a bacterially expressed version of full length NEMO fused at its NH2-terminus to glutathione S-transferase (GST-NEMO; FIG. 1A). Various truncation mutants lacking different functional domains of IKKβ (catalytic domain, leucine zipper and helix-loop-helix; FIG. 1A) were constructed.
These mutants were labeled by in vitro translation with [^35S]-methionine (input; FIG. 1B), mixed with either GST alone or GST-NEMO, and precipitated using glutathione-agarose. […]
Further mutations in the NBD were analyzed (see Table 1) for their ability to affect NEMO binding to IKKβ using the GST pulldown assay explained in Example 3.

Experiment [1] has as its system mice (lethal Salmonella typhimurium LPS challenge). The experiment can be described thus: Lethal lipopolysaccharide mouse model. The format is in vivo, male C57BL/6 mice. Here is the method: In this experiment, the ability of anti-inflammatory compounds of the invention to rescue mice challenged with a lethal amount of lipopolysaccharide (LPS) was assessed. LPS is a bacterial product that induces many of the responses that are seen in septic patients, including death. In this model, Salmonella typhimurium LPS in phosphate-buffered […] (PBS) was administered to male C57BL/6 mice by intravenous injection at a dose of 30 mg/kg (600 μg/20 g mouse). This dose was established in control experiments to be lethal in 100% of the mice that received it. Mice were treated with the test peptide by intravenous injection (in 1% dimethyl sulfoxide in PBS) immediately prior to the LPS injection and 24 hours after the LPS injection. Mice were monitored twice daily for up to 8 days after receiving LPS and the duration of survival and the number of surviving mice were recorded.

The test system of experiment [2] is mice (PMA-induced ear edema). Briefly: PMA-induced ear edema in mice. The note with it: topical 40 μg/ear, 30 min before and after PMA 5 μg/ear, 6 h. In kind it is in vivo. Here is the method: The NBD peptide was tested for its ability to inhibit inflammatory responses in animals using two distinct models of acute inflammation. In the first model, ear edema was induced in mice using phorbol-12-myristate-13-acetate (PMA) and the effects of topical administration of the NBD peptides were measured. Ear edema using PMA was induced in replicate groups of age and sex matched mice as previously described (Chang et al., (1987) Eur. J. Pharmacol. 142, 197-205). Twenty μl of either NBD peptides (200 μg/ear), dexamethasone (40 μg/ear) or vehicle (DMSO:Ethanol; 25:75 v/v) was applied topically to the right ear of mice thirty minutes before and thirty minutes after the application of 20 μl of PMA (5 μg/ear) dissolved in ethanol. Ear swelling was measured six hours after PMA application using a microgauge and expressed as the mean difference in thickness between the treated (right) and untreated (left) ears. Statistical analysis of the data was performed using the students t-test. A value of p<0.05 was considered statistically significant.

The test system of experiment [3] is mice (zymosan-induced peritonitis). The experiment can be described thus: Zymosan-induced peritonitis in mice. The format is in vivo, mice (C57BL/6NCR). The conditions noted are these: dexamethasone 100 mg/ml i.p. with zymosan. The method, then: In a second model, peritonitis was induced in mice by intraperitoneal (i.p.) injection of zymosan either alone or in combination with dexamethasone or the NBD peptides. For zymosan-induced peritonitis, measurement of peritoneal exudates and inflammatory cell collections from replicate groups of age and sex matched mice (C57BL/6NCR) were performed as previously described (Getting et al., (1998) Immunology 95, 625-630). Groups of animals were injected concomitantly with one ml zymosan (1 mg/ml) and either dexamethasone (100 mg/ml) or the NBD peptides (200 mg/ml). The concentration of NOX (nitrate plus nitrite) present in the inflammatory exudates was measured using a colorimetric assay kit (Alexis Corporation) according to the manufacturers protocol.

The test system of experiment [4] is mice (Concanavalin A-induced hepatitis). The experiment can be described thus: Concanavalin A-induced hepatitis in mice. The format is in vivo, male C57BL/6 mice. The note with it: for ALT / AST: serum 18-24 h, mean±SEM. Here is the method: Forty male C57BL/6 mice weighing between 18 g and 22 g were divided into five treatment groups of eight mice each as shown below.
The mice were placed in a restrainer and injected intravenously (i.v.) in the tail with a test peptide or vehicle in 1% DMSO in PBS. The mice were then immediately injected i.v. with 15 mg/kg of concanavalin A dissolved in sterile PBS. The injection volume was 5 ml/kg (100 μI/20 g mouse) with a concanavalin A concentration of 3.0 mg/ml. The next morning (18-24 hours later), these mice were euthanized by CO2 inhalation and blood was collected by cardiac puncture. The serum was then separated and analyzed for AST and ALT.
ALT and AST values are given as Sigma-Frankel units/ml, mean±SEM.

The mark [5] stands for this setting: dose 1 mg/kg i.v., number dosed 8, LPS 30 mg/kg i.v.
Where [6] appears, read: dose 5 mg/kg i.v., number dosed 8, LPS 30 mg/kg i.v.
Where [7] appears, read: dose 5 mg/kg i.v., number dosed 7, LPS 30 mg/kg i.v.
[8] abbreviates: concanavalin A 15 mg/kg i.v. + 0.5 mg/kg i.v.
[9] abbreviates: concanavalin A 15 mg/kg i.v. + 1 mg/kg i.v.
Where [10] appears, read: concanavalin A 15 mg/kg i.v. + 5 mg/kg i.v.

T1 sequence (Q9Y6K9 whole entry, the tested form may be a part): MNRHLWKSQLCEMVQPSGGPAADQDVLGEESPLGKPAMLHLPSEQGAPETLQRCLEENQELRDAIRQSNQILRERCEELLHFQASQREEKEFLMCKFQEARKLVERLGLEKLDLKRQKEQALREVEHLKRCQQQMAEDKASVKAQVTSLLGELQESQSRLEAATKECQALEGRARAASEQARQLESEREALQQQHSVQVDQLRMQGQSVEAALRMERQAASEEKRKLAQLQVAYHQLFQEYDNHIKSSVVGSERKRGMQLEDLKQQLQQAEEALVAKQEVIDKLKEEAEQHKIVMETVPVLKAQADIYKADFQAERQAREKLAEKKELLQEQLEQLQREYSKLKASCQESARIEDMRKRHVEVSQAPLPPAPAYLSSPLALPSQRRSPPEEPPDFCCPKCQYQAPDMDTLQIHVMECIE

As for ADWSWL, the “Binds to NEMO” value at NEMO was “yes”.

Turning to “LDWSFL (Description of Artificial Sequence: Synthetic NBD peptide)”, in the experiment with NEMO, the “Binds to NEMO” value was “yes”.

With LDFSWL, on NEMO, the “Binds to NEMO” value was “yes”.

For the molecule “LDWEWL (Description of Artificial Sequence: Synthetic NBD peptide)”, the “Binds to NEMO” value in the experiment with NEMO is “yes”.

For “H-rrrrrrrLDWSWL-NH2 (H-[dR][dR][dR][dR][dR][dR][dR]LDWSWL-NH2; SMILES CC(C)C[C@H](NC(=O)[C@H](Cc1c[nH]c2ccccc12)NC(=O)[C@H](CO)NC(=O)[C@H](Cc1c[nH]c2ccccc12)NC(=O)[C@H](CC(=O)O)NC(=O)[C@H](CC(C)C)NC(=O)[C@@H](CCCNC(=N)N)NC(=O)[C@@H](CCCNC(=N)N)NC(=O)[C@@H](CCCNC(=N)N)NC(=O)[C@@H](CCCNC(=N)N)NC(=O)[C@@H](CCCNC(=N)N)NC(=O)[C@@H](CCCNC(=N)N)NC(=O)[C@H](N)CCCNC(=N)N)C(N)=O) [compound 8]”, the “survival (day five), number of mice surviving” value (from here on “survival (day five), number”) was 0 in experiment [1] (setting [5]); 7 and 8 in experiment [1] (setting [6]).

Take “LDWSYL (Description of Artificial Sequence: Synthetic NBD peptide)”: in the experiment with NEMO, the “Binds to NEMO” value is “no”.

As for “LAWSWL (Description of Artificial Sequence: Synthetic NBD peptide)”, in the experiment with NEMO, the “Binds to NEMO” value is “no”.

“LNWSWL (Description of Artificial Sequence: Synthetic NBD peptide)”: the “Binds to NEMO” value in the experiment with NEMO is “yes”.

For the molecule “H-YGRKKRRQRRRTALDWSWLQTE-NH2 [compound 2]”, the “survival (day five), number” value in experiment [1] (setting [7]) is 7; in experiment [1] (setting [6]), 4.

Turning to “LDWSAL (Description of Artificial Sequence: Synthetic NBD peptide)”, in the experiment with NEMO, the “Binds to NEMO” value is on record as “no”.

Turning to `C[C@@H]1C[C@H]2[C@@H]3CCC4=CC(=O)C=C[C@]4(C)[C@@]3(F)[C@@H](O)C[C@]2(C)[C@@]1(O)C(=O)CO` [dexamethasone], the “inhibition of PMA-induced ear thickening” value in experiment [2] is 82%. The “reduction of NOX in peritoneal exudates” value in experiment [3] worked out at 86±7%.

With “LDASWL (Description of Artificial Sequence: Synthetic NBD peptide)”, the “Binds to NEMO” value with NEMO is listed as “no”.

In the case of “H-yaraarraarrLDWSWL-NH2 (H-[dY][dA][dR][dA][dA][dR][dR][dA][dA][dR][dR]LDWSWL-NH2; SMILES CC(C)C[C@H](NC(=O)[C@H](Cc1c[nH]c2ccccc12)NC(=O)[C@H](CO)NC(=O)[C@H](Cc1c[nH]c2ccccc12)NC(=O)[C@H](CC(=O)O)NC(=O)[C@H](CC(C)C)NC(=O)[C@@H](CCCNC(=N)N)NC(=O)[C@@H](CCCNC(=N)N)NC(=O)[C@@H](C)NC(=O)[C@@H](C)NC(=O)[C@@H](CCCNC(=N)N)NC(=O)[C@@H](CCCNC(=N)N)NC(=O)[C@@H](C)NC(=O)[C@@H](C)NC(=O)[C@@H](CCCNC(=N)N)NC(=O)[C@@H](C)NC(=O)[C@H](N)Cc1ccc(O)cc1)C(N)=O) [compound 10]”, the “liver injury by concanavalin A, gross pathology” value in experiment [4] (5 mg/kg) was “prevented”. Also, the “protection against concanavalin A-induced liver damage” value in experiment [4] (5 mg/kg) is given as “able to protect”. The ALT in experiment [4] (setting [8]) is on record as 1919 ± 234 Sigma-Frankel units/ml; in experiment [4] (setting [9]), 1910 ± 281 Sigma-Frankel units/ml; in experiment [4] (setting [10]), 72 ± 19 Sigma-Frankel units/ml. The AST in experiment [4] (setting [8]) is recorded as 1217 ± 192 Sigma-Frankel units/ml; in experiment [4] (setting [9]), 1264 ± 270 Sigma-Frankel units/ml; in experiment [4] (setting [10]), 99 ± 14 Sigma-Frankel units/ml. Moreover, the “survival (day five), number” value in experiment [1] (setting [5]) is 5; in experiment [1] (setting [6]), 8 and 6.

In the case of “LDWSWA (Description of Artificial Sequence: Synthetic NBD peptide)”, the “Binds to NEMO” value in the experiment with NEMO is on record as “yes”.

On to “LDASAL (Description of Artificial Sequence: Synthetic NBD peptide)”, for which, in the experiment with NEMO, the “Binds to NEMO” value was “no”.

On to “H-rrmkwkkLDWSWL-NH2 (H-[dR][dR][dM][dK][dW][dK][dK]LDWSWL-NH2; SMILES CSCC[C@@H](NC(=O)[C@@H](CCCNC(=N)N)NC(=O)[C@H](N)CCCNC(=N)N)C(=O)N[C@H](CCCCN)C(=O)N[C@H](Cc1c[nH]c2ccccc12)C(=O)N[C@H](CCCCN)C(=O)N[C@H](CCCCN)C(=O)N[C@@H](CC(C)C)C(=O)N[C@@H](CC(=O)O)C(=O)N[C@@H](Cc1c[nH]c2ccccc12)C(=O)N[C@@H](CO)C(=O)N[C@@H](Cc1c[nH]c2ccccc12)C(=O)N[C@@H](CC(C)C)C(N)=O) [compound 7]”, for which the “survival (day five), number” value in experiment [1] (setting [6]) is on record as 8.

With H-RRMKWKKLDWSWL-NH2 [compound 6], the “survival (day five), number” value in experiment [1] (setting [5]) is 0; in experiment [1] (setting [6]), 7 and 5 and 4 and 8.

Consider H-RRMKWKKTALDWSWLQTE-NH2 [compound 1], for which the “survival (day five), number” value in experiment [1] (setting [7]) is 1.

Consider “LDWSWL (Description of Artificial Sequence: Synthetic NBD peptide)”, for which the “Binds to NEMO” value in the experiment with NEMO is listed as “yes”.

On to H-YARAARRAARRLDWSWL-NH2 [compound 9], for which the “survival (day five), number” value in experiment [1] (setting [5]) was 0; in experiment [1] (setting [6]), 6 and 8.

Turning to “LEWSWL (Description of Artificial Sequence: Synthetic NBD peptide)”, the “Binds to NEMO” value in the experiment with NEMO is “yes”.

As for “LDYSWL (Description of Artificial Sequence: Synthetic NBD peptide)”, the “Binds to NEMO” value with NEMO is “yes”.

As to “H-rrrrrrrTALDWSWLQTE-NH2 (H-[dR][dR][dR][dR][dR][dR][dR]TALDWSWLQTE-NH2; SMILES CC(C)C[C@H](NC(=O)[C@H](C)NC(=O)[C@@H](NC(=O)[C@@H](CCCNC(=N)N)NC(=O)[C@@H](CCCNC(=N)N)NC(=O)[C@@H](CCCNC(=N)N)NC(=O)[C@@H](CCCNC(=N)N)NC(=O)[C@@H](CCCNC(=N)N)NC(=O)[C@@H](CCCNC(=N)N)NC(=O)[C@H](N)CCCNC(=N)N)[C@@H](C)O)C(=O)N[C@@H](CC(=O)O)C(=O)N[C@@H](Cc1c[nH]c2ccccc12)C(=O)N[C@@H](CO)C(=O)N[C@@H](Cc1c[nH]c2ccccc12)C(=O)N[C@@H](CC(C)C)C(=O)N[C@@H](CCC(N)=O)C(=O)N[C@H](C(=O)N[C@@H](CCC(=O)O)C(N)=O)[C@@H](C)O) [compound 3]”, the “survival (day five), number” value is 7 in experiment [1] (setting [7]); 5 and 8 in experiment [1] (setting [6]).

For the molecule LDWAWL, the “Binds to NEMO” value at NEMO is reported as “yes”.

As to “H-YARKARRQARRTALDWSWLQTE-NH2 [compound 4]”, the “survival (day five), number” value in experiment [1] (setting [6]) stood at 0.

In the case of “H-YARAARRAARRTALDWSWLQTE-NH2 [compound 5]”, the “survival (day five), number” value in experiment [1] (setting [5]) was 4.

Regarding H-YGRKKRRQRRRLDWSWL-NH2 [compound 11], the “survival (day five), number” value in experiment [1] (setting [6]) was determined as 6.
